Results taken from ChEMBL document CHEMBL3044528, “Potential new fungicides: N-acyl-5-methyl-3(2H)-isoxazolone derivatives” (2012).

Key:
Assay type in all cases: functional
Alternaria alternata = experiment: Fungicidal activity against Alternaria alternata APS-38 assessed as mycelial growth inhibition at 25 mg/L after 3 days; conditions: APS-38, 72 h, read-out: GI
Gaeumannomyces graminis = experiment: Fungicidal activity against Gaeumannomyces graminis MAFF305168 assessed as mycelial growth inhibition at 25 mg/L after 1 day; conditions: MAFF305168, 24 h, read-out: GI
Rhizoctonia solani = experiment: Fungicidal activity against Rhizoctonia solani ET0007 assessed as mycelial growth inhibition at 25 mg/L after 1 day; conditions: ET0007, 24 h, read-out: GI
Microdochium nivale = experiment: Fungicidal activity against Microdochium nivale IFO-7432 assessed as mycelial growth inhibition at 25 mg/L after 3 days; conditions: IFO-7432, 72 h, read-out: GI
Zymoseptoria tritici = experiment: Fungicidal activity against Zymoseptoria tritici S3 assessed as mycelial growth inhibition at 25 mg/L after 14 days; conditions: S3, 336 h, read-out: GI
Rhynchosporium secalis = experiment: Fungicidal activity against Rhynchosporium secalis IFO-5290 assessed as mycelial growth inhibition at 25 mg/L after 14 days; conditions: IFO-5290, 336 h, read-out: GI
Cercospora beticola = experiment: Fungicidal activity against Cercospora beticola Be-2-6 assessed as mycelial growth inhibition at 25 mg/L after 7 days; conditions: Be-2-6, 168 h, read-out: GI
Fusarium graminearum = experiment: Fungicidal activity against Fusarium graminearum H3 assessed as mycelial growth inhibition at 25 mg/L after 3 days; conditions: H3, 72 h, read-out: GI
Pyrenophora graminea = experiment: Fungicidal activity against Pyrenophora graminea IFO-7507 assessed as mycelial growth inhibition at 25 mg/L after 3 days; conditions: IFO-7507, 72 h, read-out: GI

| Structure (SMILES) | inhibition of growth at 25 µg/mL (Alternaria alternata) | inhibition of growth at 25 µg/mL (Gaeumannomyces graminis) | inhibition of growth at 25 µg/mL (Rhizoctonia solani) | inhibition of growth at 25 µg/mL (Microdochium nivale) | inhibition of growth at 25 µg/mL (Zymoseptoria tritici) | inhibition of growth at 25 µg/mL (Rhynchosporium secalis) | inhibition of growth at 25 µg/mL (Cercospora beticola) | inhibition of growth at 25 µg/mL (Fusarium graminearum) | inhibition of growth at 25 µg/mL (Pyrenophora graminea) |
| --- | --- | --- | --- | --- | --- | --- | --- | --- | --- |
| CCn1oc(C)cc1=O | 21% | 3% | 0% | 0% | 0% | 13% | 2% | 4% | 6% |
| CCCn1oc(C)cc1=O | 11% | 3% | 15% | 4% | 0% | 2% | 4% | 8% | 16% |
| Cc1cc(O)no1 [HYMEXAZOL] | 74% | 56% | 28% | 77% | 86% | 100% | 88% | 45% | 80% |
